Experimental findings from patent US20240018123A1, “COMPOUND FOR INHIBITING OR DISINTEGRATING ANDROGEN RECEPTOR, AND PHARMACEUTICAL USE THEREOF” (KOREA RESEARCH INSTITUTE OF CHEMICAL TECHNOLOGY, priority 2020, published 2024) are described below.

The target of this assay is T1, Androgen receptor (AR) (Homo sapiens, UniProt P10275, T878A).
T1 construct: 5.5×10^5 LNCap cells were injected into each well of a 6-well plate; endogenous in cells; host or cells: LNCaP
T1 sequence (P10275 1-920 T878A): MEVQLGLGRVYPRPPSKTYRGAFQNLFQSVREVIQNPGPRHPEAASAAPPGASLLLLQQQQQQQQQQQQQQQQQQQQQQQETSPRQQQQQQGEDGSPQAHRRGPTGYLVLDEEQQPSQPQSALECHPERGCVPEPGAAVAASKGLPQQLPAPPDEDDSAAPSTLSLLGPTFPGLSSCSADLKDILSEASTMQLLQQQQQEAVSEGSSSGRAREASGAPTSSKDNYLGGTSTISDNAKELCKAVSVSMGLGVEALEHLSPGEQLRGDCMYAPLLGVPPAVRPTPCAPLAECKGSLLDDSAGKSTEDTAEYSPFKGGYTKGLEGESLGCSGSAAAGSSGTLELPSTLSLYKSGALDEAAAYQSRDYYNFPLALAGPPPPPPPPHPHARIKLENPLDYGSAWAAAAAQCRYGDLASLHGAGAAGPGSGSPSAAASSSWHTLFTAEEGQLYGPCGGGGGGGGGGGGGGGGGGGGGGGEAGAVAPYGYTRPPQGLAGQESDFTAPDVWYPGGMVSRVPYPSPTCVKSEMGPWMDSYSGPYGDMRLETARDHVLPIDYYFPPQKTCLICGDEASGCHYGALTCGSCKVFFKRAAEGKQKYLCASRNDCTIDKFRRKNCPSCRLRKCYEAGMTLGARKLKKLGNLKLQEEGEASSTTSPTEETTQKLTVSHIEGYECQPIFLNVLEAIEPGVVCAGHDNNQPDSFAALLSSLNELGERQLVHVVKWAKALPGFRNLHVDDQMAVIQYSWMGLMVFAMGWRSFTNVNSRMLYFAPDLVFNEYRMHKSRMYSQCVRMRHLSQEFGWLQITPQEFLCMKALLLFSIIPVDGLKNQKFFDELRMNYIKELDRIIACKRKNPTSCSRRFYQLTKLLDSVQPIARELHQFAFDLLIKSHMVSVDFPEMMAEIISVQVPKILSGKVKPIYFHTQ
In words: Assessment of AR proteolytic activity (Western blotting of LNCap cell lysates). The class given is cell-based. Conditions: 24 hours of treatment, Western blotting quantified with Image J. The method, then: Assessment of AR Proteolytic Activity
Androgen receptor (AR) proteolytic activity of the compound according to the present invention was evaluated as follows: Specifically, 5.5×10^5 LNCap cells were injected into each well of a 6-well plate. […] After 24 hours of treatment, cells were collected and lysed using RIPA Lysis buffer (50 mM Tris-HCl, pH7.5, 150 mM NaCl, 1% Triton X-100, 2 mM EDTA, 0.1% SDS, 0.5% sodium deoxycholate and protease inhibitor cocktail) to make cell lysates. Western blotting was performed, and the results were quantified using Image J program.
In general terms: In western blotting, separated proteins are transferred to a membrane and probed.
With `CC1(C)C(NC(=O)c2ccc(N3CCC(CN4CC5(CCN(c6ccc7c(=O)n(C8CCC(=O)NC8=O)nnc7c6)CC5)C4)CC3)nc2)C(C)(C)C1Oc1ccc(C#N)c(Cl)c1` (stereo not shown) [Example 169, N-((1r,3r)-3-(3-chloro-4-cyanophenoxy)-2,2,4,4-tetramethylcyclobutyl)-6-(4-((7-(3-(2,6-dioxopiperidin-3-yl)-4-oxo-3,4-dihydrobenzo[d][1,2,3]triazin-7-yl)-2,7-diazaspiro[3.5]nonan-2-yl)methyl)piperidin-1-yl)nicotinamide], the “Degradation (1 μM treated in LNCaP, % AR remaining)” value came to 16%.
With `N#Cc1ccc(OC2CCC(NC(=O)c3ccc(N4CCC(CN5CCN(c6ccc7nnn(C8CCC(=O)NC8=O)c(=O)c7c6)CC5)CC4)nc3)CC2)cc1Cl` (stereo not shown) [Example 160, N-((1r,4r)-4-(3-chloro-4-cyanophenoxy)cyclohexyl)-6-(4-((4-(3-(2,6-dioxopiperidin-3-yl)-4-oxo-3,4-dihydrobenzo[d][1,2,3]triazin-6-yl)piperazin-1-yl)methyl)piperidin-1-yl)nicotinamide], the “Degradation (1 μM treated in LNCaP, % AR remaining)” value was 31%.
In the case of `CC1(C)C(NC(=O)c2ccc(C#CCN3CCC4(CC3)CN(c3ccc5c(=O)n(C6CCC(=O)NC6=O)nnc5c3)C4)nc2)C(C)(C)C1Oc1ccc(C#N)c(Cl)c1` (stereo not shown) [Example 181, N-((1r,3r)-3-(3-chloro-4-cyanophenoxy)-2,2,4,4-tetramethylcyclobutyl)-6-(3-(2-(3-(2,6-dioxopiperidin-3-yl)-4-oxo-3,4-dihydrobenzo[d][1,2,3]triazin-7-yl)-2,7-diazaspiro[3.5]nonan-7-yl)prop-1-yn-1-yl)nicotinamide] it was 18%; in that of `CC1(C)C(NC(=O)c2ccc(N3CCN(CCCCCOc4ccc5nnn(C6CCC(=O)NC6=O)c(=O)c5c4)CC3)nc2)C(C)(C)C1Oc1ccc(C#N)c(Cl)c1` (stereo not shown) [Example 163, N-((1r,3r)-3-(3-chloro-4-cyanophenoxy)-2,2,4,4-tetramethylcyclobutyl)-6-(4-(5-((3-(2,6-dioxopiperidin-3-yl)-4-oxo-3,4-dihydrobenzo[d][1,2,3]triazin-6-yl)oxy)pentyl)piperazin-1-yl)nicotinamide], 10%.
In the case of `CC1(C)[C@H](NC(=O)c2ccc(N3CC[C@H](CN4CC5(C4)CN(c4ccc6c(=O)n(C7CCC(=O)NC7=O)nnc6c4)C5)C3)nc2)C(C)(C)[C@H]1Oc1ccc(C#N)c(Cl)c1` (stereo partly drawn) [Example 190, N-((1r,3R)-3-(3-chloro-4-cyanophenoxy)-2,2,4,4-tetramethylcyclobutyl)-6-((3R)-3-((6-(3-(2,6-dioxopiperidin-3-yl)-4-oxo-3,4-dihydrobenzo[d][1,2,3]triazin-7-yl)-2,6-diazaspiro[3.3]heptan-2-yl)methyl)pyrrolidin-1-yl)nicotinamide] it was 11%; in that of `CC1(C)C(NC(=O)c2ccc(C#CC3CCN(CC4CCN(c5ccc6nnn(C7CCC(=O)NC7=O)c(=O)c6c5)CC4)CC3)nc2)C(C)(C)C1Oc1ccc(C#N)c(Cl)c1` (stereo not shown) [Example 196, N-((1r,3r)-3-(3-chloro-4-cyanophenoxy)-2,2,4,4-tetramethylcyclobutyl)-6-((1-((1-(3-(2,6-dioxopiperidin-3-yl)-4-oxo-3,4-dihydrobenzo[d][1,2,3]triazin-6-yl)piperidin-4-yl)methyl)piperidin-4-yl)ethynyl)nicotinamide], 4%.
In the case of `CC1(C)C(NC(=O)c2ccc(N3CCC4(CC3)CN(CC3CN(c5ccc6c(=O)n(C7CCC(=O)NC7=O)nnc6c5)C3)C4)nc2)C(C)(C)C1Oc1ccc(C#N)c(Cl)c1` (stereo not shown) [Example 175, N-((1r,3r)-3-(3-chloro-4-cyanophenoxy)-2,2,4,4-tetramethylcyclobutyl)-6-(2-((1-(3-(2,6-dioxopiperidin-3-yl)-4-oxo-3,4-dihydrobenzo[d][1,2,3]triazin-7-yl)azetidin-3-yl)methyl)-2,7-diazaspiro[3.5]nonan-7-yl)nicotinamide] it was 10%; in that of “N-((1r,3r)-3-(3-chloro-4-cyanophenoxy)-2,2,4,4-tetramethylcyclobutyl)-4-(4-(1-(3-(2,6-dioxopiperidin-3-yl)-4-oxo-3,4-dihydrobenzo[d][1,2,3]triazin-6-yl)azetidine-3-carbonyl)piperazin-1-yl)benzamide [Example 44]”, 3.7%; in that of `CC1(C)C(NC(=O)c2ccc(N3CCC4(CC3)CN(CC3CCN(c5ccc6nnn(C7CCC(=O)NC7=O)c(=O)c6c5)CC3)C4)nc2)C(C)(C)C1Oc1ccc(C#N)c(Cl)c1` (stereo not shown) [Example 174, N-((1r,3r)-3-(3-chloro-4-cyanophenoxy)-2,2,4,4-tetramethylcyclobutyl)-6-(2-((1-(3-(2,6-dioxopiperidin-3-yl)-4-oxo-3,4-dihydrobenzo[d][1,2,3]triazin-6-yl)piperidin-4-yl)methyl)-2,7-diazaspiro[3.5]nonan-7-yl)nicotinamide], 15%.
On to `CC1(C)C(NC(=O)c2ccc(C#CC3CCN(CC4CN(c5ccc6c(=O)n(C7CCC(=O)NC7=O)nnc6c5)C4)CC3)nc2)C(C)(C)C1Oc1ccc(C#N)c(Cl)c1` (stereo not shown) [Example 183, N-((1r,3r)-3-(3-chloro-4-cyanophenoxy)-2,2,4,4-tetramethylcyclobutyl)-6-((1-((1-(3-(2,6-dioxopiperidin-3-yl)-4-oxo-3,4-dihydrobenzo[d][1,2,3]triazin-7-yl)azetidin-3-yl)methyl)piperidin-4-yl)ethynyl)nicotinamide], for which the “Degradation (1 μM treated in LNCaP, % AR remaining)” value amounted to 7.5%.
The same measure for `CC1(C)C(NC(=O)c2ccc(N3CCC4(CC3)CN(CC3CCN(c5ccc6c(=O)n(C7CCC(=O)NC7=O)nnc6c5)CC3)C4)nc2)C(C)(C)C1Oc1ccc(C#N)c(Cl)c1` (stereo not shown) [Example 173, N-((1r,3r)-3-(3-chloro-4-cyanophenoxy)-2,2,4,4-tetramethylcyclobutyl)-6-(2-((1-(3-(2,6-dioxopiperidin-3-yl)-4-oxo-3,4-dihydrobenzo[d][1,2,3]triazin-7-yl)piperidin-4-yl)methyl)-2,7-diazaspiro[3.5]nonan-7-yl)nicotinamide]: 9%.
As to `N#Cc1ccc(O[C@H]2CC[C@H](NC(=O)c3ccc(N4CCC(CN5CC6(CCN(c7ccc8nnn(C9CCC(=O)NC9=O)c(=O)c8c7)CC6)C5)CC4)nc3)CC2)cc1Cl` (stereo partly shown) [Example 168, N-((1r,4r)-4-(3-chloro-4-cyanophenoxy)cyclohexyl)-6-(4-((7-(3-(2,6-dioxopiperidin-3-yl)-4-oxo-3,4-dihydrobenzo[d][1,2,3]triazin-6-yl)-2,7-diazaspiro[3.5]nonan-2-yl)methyl)piperidin-1-yl)nicotinamide], the “Degradation (1 μM treated in LNCaP, % AR remaining)” value was found to be 10%.
Consider `CC1(C)C(NC(=O)c2ccc(C#CCN3CCN(c4ccc5c(=O)n(C6CCC(=O)NC6=O)nnc5c4)CC3)nc2)C(C)(C)C1Oc1ccc(C#N)c(Cl)c1` (stereo not shown) [Example 177, N-((1r,3r)-3-(3-chloro-4-cyanophenoxy)-2,2,4,4-tetramethylcyclobutyl)-6-(3-(4-(3-(2,6-dioxopiperidin-3-yl)-4-oxo-3,4-dihydrobenzo[d][1,2,3]triazin-7-yl)piperazin-1-yl)prop-1-yn-1-yl)nicotinamide], for which the “Degradation (1 μM treated in LNCaP, % AR remaining)” value came to 56%.
